In patent publication US10183950B2, “Thienopyrimidine inhibitors of atypical protein kinase C” (Cancer Research Technology Limited, priority 2011, dated 2019):

Each molecule was assayed against T1, full-length human PKCι (Homo sapiens, UniProt P41743) (assay: PKCι IC50 IMAP fluorescence polarisation assay, full-length enzyme). Conditions: full length PKCi at 15 μM ATP; read-out: IC50 in IMAP assay against full length PKCi.
T1 construct: Recombinant, full-length human PKCι expressed in Sf21 insect cells is also commercially available; purchased; host or cells: Sf21 insect cells
T1 sequence (P41743 1-596): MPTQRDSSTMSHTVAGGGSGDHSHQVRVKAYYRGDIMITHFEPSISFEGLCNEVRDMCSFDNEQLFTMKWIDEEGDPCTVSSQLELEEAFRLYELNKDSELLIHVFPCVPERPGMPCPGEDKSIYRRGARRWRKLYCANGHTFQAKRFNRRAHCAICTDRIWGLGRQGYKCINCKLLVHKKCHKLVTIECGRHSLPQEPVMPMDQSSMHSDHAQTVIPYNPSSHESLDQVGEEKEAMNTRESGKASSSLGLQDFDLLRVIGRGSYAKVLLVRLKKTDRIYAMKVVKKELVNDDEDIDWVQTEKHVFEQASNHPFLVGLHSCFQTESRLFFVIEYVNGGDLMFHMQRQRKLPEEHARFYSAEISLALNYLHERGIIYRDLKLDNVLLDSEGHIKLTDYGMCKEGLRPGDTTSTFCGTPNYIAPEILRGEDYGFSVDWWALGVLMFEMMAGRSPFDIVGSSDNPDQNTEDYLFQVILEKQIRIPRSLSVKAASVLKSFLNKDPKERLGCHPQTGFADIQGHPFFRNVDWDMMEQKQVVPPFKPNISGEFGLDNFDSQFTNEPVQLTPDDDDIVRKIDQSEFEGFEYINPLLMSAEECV
Type: biochemical

IC50 [µM]	SMILES
0.1 to 1	N[C@H](CNc1nc(-c2ccncc2)nc2c(-c3cn[nH]c3)csc12)Cc1ccccc1 [compound 393, (S)-3-Phenyl-N*1*-[7-(1H-pyrazol-4-yl)-2-pyridin-4-yl-thieno[3,2-d]pyrimidin-4-yl]-propane-1,2-diamine]
0.1 to 1	COC/C=C/c1csc2c(NC[C@@H](N)Cc3ccccc3)nc(-c3ccncc3)nc12 [compound 404, (S)-N*1*-[7-((E)-3-Methoxy-propenyl)-2-pyridin-4-yl-thieno[3,2-d]pyrimidin-4-yl]-3-phenyl-propane-1,2-diamine]
< 0.1	N[C@H](CNc1nc(-c2ccncc2)nc2c(Nc3ccccn3)csc12)Cc1ccccc1 [compound 486, N*4*-((S)-2-Amino-3-phenyl-propyl)-2-pyridin-4-yl-N*7*-pyridin-2-yl-thieno[3,2-d]pyrimidine-4,7-diamine]
< 0.1	N[C@H](CNc1nc(-c2ccncc2)nc2c(-c3cn[nH]n3)csc12)Cc1ccccc1 [compound 547, (S)-3-Phenyl-N*1*-[2-pyridin-4-yl-7-(3H-[1,2,3]triazol-4-yl)-thieno[3,2-d]pyrimidin-4-yl]-propane-1,2-diamine]
< 0.1	Cc1sc2c(NC[C@@H](N)Cc3ccccc3)nc(-c3ccncc3)nc2c1C#CC(C)(C)O [compound 504, 4-[4-((S)-2-Amino-3-phenyl-propylamino)-6-methyl-2-pyridin-4-yl-thieno[3,2-d]pyrimidin-7-yl]-2-methyl-but-3-yn-2-ol]
0.1 to 1	CCCNC(=O)c1csc2c(NC[C@@H](N)Cc3ccccc3)nc(-c3ccncc3)nc12 [compound 551, 4-((S)-2-Amino-3-phenyl-propylamino)-2-pyridin-4-yl-thieno[3,2-d]pyrimidine-7-carboxylic acid propylamide]
< 0.1	N[C@H](CNc1nc(-c2ccncc2)nc2c(C#CC3CC3)csc12)Cc1ccccc1 [compound 512, (S)-N*1*-(7-Cyclopropylethynyl-2-pyridin-4-yl-thieno[3,2-d]pyrimidin-4-yl)-3-phenyl-propane-1,2-diamine]
1 to 10	NC(CNc1nc(-c2ccncc2F)nc2c(-c3cncnc3)csc12)Cc1ccccc1 (stereo in doubt) [compound 422, (R)-N*1*-[2-(3-Fluoro-pyridin-4-yl)-7-pyrimidin-5-yl-thieno[3,2-d]pyrimidin-4-yl]-3-phenyl-propane-1,2-diamine]
0.1 to 1	Nc1csc2c(NC[C@@H](N)Cc3ccccc3)nc(-c3ccncc3)nc12 [compound 566, N*4*-((S)-2-Amino-3-phenyl-propyl)-2-pyridin-4-yl-thieno[3,2-d]pyrimidine-4,7-diamine]
10 to 40	C[C@H](O)C#Cc1csc2c(N[C@@H]3CCNC3)nc(-c3ccncc3F)nc12 [compound 527, (S)-4-[2-(3-Fluoro-pyridin-4-yl)-4-((R)-pyrrolidin-3-ylamino)-thieno[3,2-d]pyrimidin-7-yl]-but-3-yn-2-ol]
10 to 40	COc1ccccc1C[C@H](N)CNc1nc(-c2ccncc2)nc2c(Br)c(C(C)(C)C)sc12 [compound 303, (S)—N*1*-(7-bromo-6-tert-butyl-2-pyridin-4-yl-thieno[3,2-d]pyrimidin-4-yl)-3-(2-methoxy-phenyl)-propane-1,2-diamine]
1 to 10	CCc1cc(-c2csc3c(NC[C@@H](N)Cc4ccccc4)nc(-c4ccncc4)nc23)no1 [compound 570, (S)-N*1*-[7-(5-Ethyl-isoxazol-3-yl)-2-pyridin-4-yl-thieno[3,2-d]pyrimidin-4-yl]-3-phenyl-propane-1,2-diamine]
10 to 40	Fc1cnccc1-c1nc(N[C@@H]2CCNC2)c2scc(Nc3cccnc3)c2n1 [compound 494, 2-(3-Fluoro-pyridin-4-yl)-N*7*-pyridin-3-yl-N*4*- (R)-pyrrolidin-3-yl-thieno[3,2-d]pyrimidine-4,7-diamine]
< 0.1	N[C@H](CNc1nc(-c2ccncc2F)nc2c(C#CCO)csc12)Cc1ccccc1 [compound 506, 3-[4-((S)-2-Amino-3-phenyl-propylamino)-2-(3-fluoro-pyridin-4-yl)-thieno[3,2-d]pyrimidin-7-yl]-prop-2-yn-1-ol]

The remaining lines, values behind:

SMILES	IC50 [µM]
O=C(Nc1cc(-c2nc(N[C@@H]3CCNC3)c3sccc3n2)ccn1)c1cccs1 [compound 595, Thiophene-2-carboxylic acid {4-[4-((R)-pyrrolidin-3-ylamino)-thieno[3,2-d]pyrimidin-2-yl]-pyridin-2-yl}-amide]	0.1 to 1
Cc1sc2c(N[C@H]3CCNC3)nc(-c3ccncc3)nc2c1Br [compound 332, (7-Bromo-6-methyl-2-pyridin-4-yl-thieno[3,2-d]pyrimidin-4-yl)-(S)-pyrrolidin-3-yl-amine]	1 to 10
Brc1csc2c(N[C@H]3CCNC3)nc(-c3ccncc3)nc12 [compound 344, (7-Bromo-2-pyridin-4-yl-thieno[3,2-d]pyrimidin-4-yl)-(S)-pyrrolidin-3-yl-amine]	1 to 10
c1cc(-c2nc(N[C@@H]3CCNC3)c3sccc3n2)cc(NC2CCOCC2)n1 [compound 625, (R)-Pyrrolidin-3-yl-{2-[2-(tetrahydro-pyran-4-ylamino)-pyridin-4-yl]-thieno[3,2-d]pyrimidin-4-yl}-amine]	10 to 40
c1cc(-c2nc(N[C@@H]3CCNC3)c3sccc3n2)cc(Nc2ccc(-c3ccsc3)cc2)n1 [compound 617, (R)-Pyrrolidin-3-yl-{2-[2-(4-thiophen-3-yl-phenylamino)-pyridin-4-yl]-thieno[3,2-d]pyrimidin-4-yl}-amine]	0.1 to 1
C[C@H](O)CNc1cc(-c2nc(N[C@@H]3CCNC3)c3sccc3n2)ccn1 [compound 591, (S)-1-{4-[4-((R)-Pyrrolidin-3-ylamino)-thieno[3,2-d]pyrimidin-2-yl]-pyridin-2-ylamino}-propan-2-ol]	1 to 10
Fc1cnc(Nc2ccccc2)cc1-c1nc(N[C@@H]2CCNC2)c2sccc2n1 [compound 579, [2-(5-Fluoro-2-phenylamino-pyridin-4-yl)-thieno[3,2-d]pyrimidin-4-yl]-(R)-pyrrolidin-3-yl-amine]	1 to 10
O=C(Nc1csc2c(N[C@@H]3CCNC3)nc(-c3ccncc3)nc12)C1CCCC1 [compound 475, Cyclopentanecarboxylic acid [2-pyridin-4-yl-4-((R)-pyrrolidin-3-ylamino)-thieno[3,2-d]pyrimidin-7-yl]-amide]	10 to 40

Same assay, conditions: full length PKCi at 15 μM ATP; read-out: IC50 in IMAP assay against full length PKCi (Activity)

IC50 [µM]	SMILES
1 to 10	N[C@H](CNc1nc(-c2ccncc2)nc2sc3c(c12)CCCC3)Cc1ccc(O)cc1 [compound 55, 4-[(S)-2-Amino-3-(2-pyridin-4-yl-5,6,7,8-tetrahydro-benzo[4,5]thieno[2,3-d]pyrimidin-4-ylamino)-propyl]-phenol]
1 to 10	CC(C)(C)OC(=O)N1CCc2c(sc3nc(-c4ccncc4)nc(NC[C@@H](N)Cc4ccccc4)c23)C1 [compound 90, 4-((S)-2-Amino-3-phenyl-propylamino)-2-pyridin-4-yl-5,8-dihydro-6H-pyrido[4′,3′:4,5]thieno[2,3-d]pyrimidine-7-carboxylic acid tert-butyl ester]
1 to 10	COc1cccc(C[C@H](N)CNc2nc(-c3ccncc3)nc3sc4c(c23)CCCC4)c1 [compound 54, (S)-3-(3-Methoxy-phenyl)-N*1*-(2-pyridin-4-yl-5,6,7,8-tetrahydro-benzo[4,5]thieno[2,3-d]pyrimidin-4-yl)-propane-1,2-diamine]
1 to 10	N[C@@H](CNc1nc(-c2ccncc2)nc2sc3c(c12)CCCC3)Cc1cccc2ccccc12 [compound 52, (R)-3-Naphthalen-1-yl-N*1*- (2-pyridin-4-yl-5,6,7,8-tetrahydro-benzo[4,5]thieno[2,3-d]pyrimidin-4-yl)-propane-1,2-diamine]

Continued, molecule first:

SMILES	IC50 [µM]
CCCCC(=O)N1CCc2c(sc3nc(-c4ccncc4)nc(NCCN)c23)C1 [compound 110, 1-[4-(2-Amino-ethylamino)-2-pyridin-4-yl-5,8-dihydro-6H-pyrido[4′,3′:4,5]thieno[2,3-d]pyrimidin-7-yl]-pentan-1-one]	10 to 40
c1cc(-c2nc(NC[C@H]3CCCCN3)c3c4c(sc3n2)CCCC4)ccn1 [compound 62, (R)-1-Piperidin-2-ylmethyl-(2-pyridin-4-yl-5,6,7,8-tetrahydro-benzo[4,5]thieno[2,3-d]pyrimidin-4-yl)-amine]	1 to 10
NCCNc1nc(-c2ccncc2)nc2sc3c(c12)CCN(C(=O)C1CC1)C3 [compound 108, [4-(2-Amino-ethylamino)-2-pyridin-4-yl-5,8-dihydro-6H-pyrido[4′,3′:4,5]thieno[2,3-d]pyrimidin-7-yl]-cyclopropyl-methanone]	10 to 40
CCN1CCc2c(sc3nc(-c4ccncc4)nc(NCCN)c23)C1 [compound 112, N*1*-(7-ethyl-2-pyridin-4-yl-5,6,7,8-tetrahydro-pyrido[4′,3′:4,5]thieno[2,3-d]pyrimidin-4-yl)-ethane-1,2-diamine]	10 to 40
CC(C)CN1CCc2c(sc3nc(-c4ccncc4)nc(NCCN)c23)C1 [compound 114, N*1*-(7-Isobutyl-2-pyridin-4-yl-5,6,7,8-tetrahydro-pyrido[4′,3′:4,5]thieno[2,3-d]pyrimidin-4-yl)-ethane-1,2-diamine]	10 to 40
